# Measured values reported in ChEMBL document CHEMBL5331145, “Discovery of a Novel Bifunctional Steroid Analog, YXG-158, as an Androgen Receptor Degrader and CYP17A1 Inhibitor for the Treatment of Enzalutamide-Resistant Prostate Cancer” (J Med Chem, 2023).
# Assays:
# [1] = molecular target: T1, Androgen receptor (Homo sapiens) (UniProt P10275); assay: Potency index, ratio of galeterone DC50 to test compound DC50 for induction of androgen receptor degradation in human LNCaP cells; format: cell-based
# T1 sequence (whole entry): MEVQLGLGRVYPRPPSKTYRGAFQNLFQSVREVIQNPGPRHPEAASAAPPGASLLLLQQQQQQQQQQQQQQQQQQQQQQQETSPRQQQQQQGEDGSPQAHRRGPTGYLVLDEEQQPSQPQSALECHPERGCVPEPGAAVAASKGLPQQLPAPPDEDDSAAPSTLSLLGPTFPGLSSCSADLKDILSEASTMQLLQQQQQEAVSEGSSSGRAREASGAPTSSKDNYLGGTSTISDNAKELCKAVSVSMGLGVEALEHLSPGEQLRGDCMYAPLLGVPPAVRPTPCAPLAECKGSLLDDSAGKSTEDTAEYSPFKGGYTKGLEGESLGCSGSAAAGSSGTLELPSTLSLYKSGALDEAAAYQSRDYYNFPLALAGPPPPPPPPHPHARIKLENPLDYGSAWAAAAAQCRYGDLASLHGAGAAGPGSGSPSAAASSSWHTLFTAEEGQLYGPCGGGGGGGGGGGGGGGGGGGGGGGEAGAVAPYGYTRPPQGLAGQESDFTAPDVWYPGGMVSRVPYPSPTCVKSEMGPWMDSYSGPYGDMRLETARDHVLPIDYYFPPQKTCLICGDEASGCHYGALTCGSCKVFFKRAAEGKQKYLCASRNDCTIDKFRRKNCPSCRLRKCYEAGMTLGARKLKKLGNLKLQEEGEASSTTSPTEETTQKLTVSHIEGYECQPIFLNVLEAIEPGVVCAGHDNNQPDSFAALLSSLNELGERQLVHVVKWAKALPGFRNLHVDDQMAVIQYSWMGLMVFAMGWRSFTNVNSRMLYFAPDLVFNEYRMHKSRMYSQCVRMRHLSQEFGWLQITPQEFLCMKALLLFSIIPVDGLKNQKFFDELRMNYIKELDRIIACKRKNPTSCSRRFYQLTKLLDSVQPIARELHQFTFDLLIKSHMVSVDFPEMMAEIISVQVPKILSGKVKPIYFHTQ
# Androgen receptor [2] = molecular target: T2, Androgen receptor (Homo sapiens, UniProt P10275); assay: Induction of androgen receptor degradation in human LNCaP cells incubated for 24 hrs by ELISA; format: cell-based
# T2 sequence (P10275 whole entry): T1 sequence (whole entry)
# [3] = molecular target: Voltage-gated inwardly rectifying potassium channel KCNH2 (Homo sapiens, UniProt Q12809); assay: Inhibition of human ERG by patch clamp assay; format: toxicity
# Sequence of Voltage-gated inwardly rectifying potassium channel KCNH2 (Q12809 whole entry): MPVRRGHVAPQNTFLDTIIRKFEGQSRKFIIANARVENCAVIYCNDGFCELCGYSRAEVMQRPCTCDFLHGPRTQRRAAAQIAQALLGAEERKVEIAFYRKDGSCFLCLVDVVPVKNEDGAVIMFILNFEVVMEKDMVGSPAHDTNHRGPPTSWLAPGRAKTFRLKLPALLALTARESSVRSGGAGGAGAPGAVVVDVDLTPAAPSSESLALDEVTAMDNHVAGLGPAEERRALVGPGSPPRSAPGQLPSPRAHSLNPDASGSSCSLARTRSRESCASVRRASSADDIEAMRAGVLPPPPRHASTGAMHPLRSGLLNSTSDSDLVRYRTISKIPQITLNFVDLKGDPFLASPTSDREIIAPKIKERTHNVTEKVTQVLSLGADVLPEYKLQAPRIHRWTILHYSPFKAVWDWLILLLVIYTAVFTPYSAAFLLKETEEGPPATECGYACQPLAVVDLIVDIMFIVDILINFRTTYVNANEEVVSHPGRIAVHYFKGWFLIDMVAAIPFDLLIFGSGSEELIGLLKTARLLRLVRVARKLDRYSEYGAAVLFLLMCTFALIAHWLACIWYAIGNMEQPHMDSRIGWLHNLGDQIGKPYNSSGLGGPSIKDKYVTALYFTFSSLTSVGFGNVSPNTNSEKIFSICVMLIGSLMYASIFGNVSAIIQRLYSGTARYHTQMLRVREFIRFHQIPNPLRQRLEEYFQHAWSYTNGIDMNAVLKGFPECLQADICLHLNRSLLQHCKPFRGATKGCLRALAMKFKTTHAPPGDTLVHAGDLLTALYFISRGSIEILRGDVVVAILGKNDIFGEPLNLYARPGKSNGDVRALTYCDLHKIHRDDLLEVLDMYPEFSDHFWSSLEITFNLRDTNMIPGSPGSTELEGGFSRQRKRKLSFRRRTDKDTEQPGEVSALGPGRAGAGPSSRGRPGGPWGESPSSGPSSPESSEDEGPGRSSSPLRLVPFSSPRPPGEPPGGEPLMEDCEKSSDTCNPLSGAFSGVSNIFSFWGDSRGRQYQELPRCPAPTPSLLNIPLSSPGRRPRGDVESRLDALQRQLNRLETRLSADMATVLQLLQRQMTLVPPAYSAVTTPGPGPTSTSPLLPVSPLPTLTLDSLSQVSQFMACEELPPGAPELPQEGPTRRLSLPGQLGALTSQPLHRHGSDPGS
# LNCaP = assay: Antiproliferative activity against human LNCaP cells incubated for 6 days by CellTiter-Glo assay; format: functional, cell-based
# Androgen receptor [4] = molecular target: T2, Androgen receptor; assay: Antagonist activity at wild type androgen receptor expressed in HEK293 cells assessed as reduction in DHT-induced transcriptional activation of androgen receptor incubated for 24 hrs by Steady-Glo assay; format: cell-based
# [5] = Tmax in Sprague-Dawley rat at 10 mg/kg, po measured upto 24 hrs by LC-MS/MS analysis; format: ADME, organism-based; details: in vivo
# [6] = Half life in Sprague-Dawley rat at 10 mg/kg, po measured upto 24 hrs by LC-MS/MS analysis; format: ADME, organism-based; details: in vivo
# [7] = AUC(0 to t) in Sprague-Dawley rat at 10 mg/kg, po measured upto 24 hrs by LC-MS/MS analysis; format: ADME, organism-based; details: in vivo
# [8] = Cmax in Sprague-Dawley rat at 10 mg/kg, po measured upto 24 hrs by LC-MS/MS analysis; format: ADME, organism-based; design: dose 10 mg/kg, time < 24 hrs, route po; details: in vivo
# [9] = molecular target: T3, Steroid 17-alpha-hydroxylase/17,20 lyase (Homo sapiens, UniProt P05093); assay: Inhibition of recombinant human CYP17A1 using progesterone as substrate incubated for 5 mins in presence of NADPH by LC-MS/MS analysis; format: ADME
# T3 sequence (P05093 whole entry): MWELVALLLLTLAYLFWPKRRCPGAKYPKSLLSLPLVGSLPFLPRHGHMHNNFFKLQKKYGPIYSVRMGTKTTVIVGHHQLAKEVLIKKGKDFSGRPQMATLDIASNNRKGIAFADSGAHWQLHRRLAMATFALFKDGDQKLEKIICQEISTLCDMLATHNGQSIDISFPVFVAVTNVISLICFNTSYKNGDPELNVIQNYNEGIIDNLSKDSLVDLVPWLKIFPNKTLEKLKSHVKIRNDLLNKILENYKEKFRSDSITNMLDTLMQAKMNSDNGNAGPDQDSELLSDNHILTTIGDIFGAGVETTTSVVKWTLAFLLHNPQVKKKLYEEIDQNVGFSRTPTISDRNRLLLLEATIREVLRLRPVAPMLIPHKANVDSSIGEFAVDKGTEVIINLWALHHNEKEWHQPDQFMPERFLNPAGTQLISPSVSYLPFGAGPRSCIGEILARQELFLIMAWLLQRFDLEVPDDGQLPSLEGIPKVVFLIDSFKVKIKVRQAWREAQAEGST
Structure (SMILES),IC50 (LNCaP) [µM],Ratio [1],EC50 (Androgen receptor [2]) [µM],IC50 [3] [µM],further results
CC(C)c1cn(C2=CCC3C4CC=C5C[C@@H](NC(=O)c6ccncc6)CC[C@]5(C)C4CC[C@]23C)cn1 (some centres not stated),0.735,2.5,4.76,15,
Cc1cn(C2=CCC3C4CC=C5C[C@@H](NC(=O)c6ccncc6)CC[C@]5(C)C4CC[C@]23C)cn1 (some centres not stated),0.341,,2.84,6.47,IC50 (Androgen receptor [4]): 0.612 µM; Tmax [5]: 2.17 h; half-life [6]: 2.8 h; AUCt [7]: 24800 h/ng/mL; Cmax [8]: 2.67 µg/mL; IC50 [9]: 2.59 µM
CCc1cn(C2=CCC3C4CC=C5C[C@@H](NC(=O)c6ccncc6)CC[C@]5(C)C4CC[C@]23C)cn1 (some centres not stated),0.356,2.5,3.21,3.58,
Cc1cn(C2=CCC3C4CC=C5C[C@@H](NC(=O)c6ccc(C#N)cc6)CC[C@]5(C)C4CC[C@]23C)cn1 (some centres not stated),0.643,2.5,1.56,> 40,
Cc1cn(C2=CCC3C4CC=C5C[C@@H](NC(=O)c6ccc(S(C)(=O)=O)cc6)CC[C@]5(C)C4CC[C@]23C)cn1 (some centres not stated),0.527,2.5,1.37,> 40,
Cc1cn(C2=CCC3C4CC=C5C[C@@H](NC(=O)c6ccc([N+](=O)[O-])cc6)CC[C@]5(C)C4CC[C@]23C)cn1 (some centres not stated),0.595,2.5,2.6,> 40,
Cc1cn(C2=CCC3C4CC=C5C[C@@H](NC(=O)c6ccncc6F)CC[C@]5(C)C4CC[C@]23C)cn1 (some centres not stated),0.753,2.5,5.72,> 40,

# More lines, main results first:
IC50 (LNCaP) [µM],Structure (SMILES),Ratio [1],EC50 (Androgen receptor [2]) [µM],IC50 [3] [µM],further results
1.38,CC(=O)c1cn(C2=CCC3C4CC=C5C[C@@H](NC(=O)c6ccnnc6)CC[C@]5(C)C4CC[C@]23C)cn1 (some centres not stated),,,,
0.958,CC(C)c1cn(C2=CCC3C4CC=C5C[C@@H](NC(=O)c6ccnnc6)CC[C@]5(C)C4CC[C@]23C)cn1 (some centres not stated),,,> 40,
3.44,Cc1cn(C2=CCC3C4CC=C5C[C@@H](NS(=O)(=O)c6ccc([N+](=O)[O-])cc6)CC[C@]5(C)C4CC[C@]23C)cn1 (some centres not stated),,,,
1.11,CC(C)(C)c1cn(C2=CCC3C4CC=C5C[C@@H](NC(=O)c6ccnnc6)CC[C@]5(C)C4CC[C@]23C)cn1 (some centres not stated),,,,
2.35,C[C@]12CC[C@H](NC(=O)c3ccnnc3)CC1=CCC1C2CC[C@]2(C)C(n3cnc(F)c3)=CCC12 (some centres not stated),,,,
4.63,CC(C)(O)c1cn(C2=CCC3C4CC=C5C[C@@H](NC(=O)c6ccnnc6)CC[C@]5(C)C4CC[C@]23C)cn1 (some centres not stated),,,,
1.96,COC(=O)c1cn(C2=CCC3C4CC=C5C[C@@H](NC(=O)c6ccnnc6)CC[C@]5(C)C4CC[C@]23C)cn1 (some centres not stated),,,,
2.1,Cc1cn(C2=CCC3C4CC=C5C[C@@H](NS(=O)(=O)c6cccnc6)CC[C@]5(C)C4CC[C@]23C)cn1 (some centres not stated),,,,
